Data set [1] relates to hEPO. Kind of data set: IV EPO expression of LNPs (tail vein injection). The class given is in vivo, female BALB/cJ mice. As to conditions: cationic lipid CL-0137, helper lipid 30 mol %; 0.017 μg EPO mRNA tail vein; 6 hours; DOPE = 1. The method, then: Lipid nanoparticles were formulated containing the four lipid components shown below at a ratio of 40:30:28.5:1.5, complexed with a hEPO messenger RNA. • Cationic lipid CL-0137, 40 mol % • Helper lipid, 30 mol % • Cholesterol, 28.5 mol % • DMG-PEG-2K (1,2-dimyristoyl-rac-glycero-3-methoxypolyethyleneglycol), 1.5 mol %
EPO expression studies were conducted with female BALB/cJ mice 6-8 weeks of age. Mice were dosed with 0.017 μg EPO mRNA LNPs in a volume of 5 ul by a single tail vein injection. Blood samples were taken 6 hours post injection and hEPO levels were measured in the blood serum of the mice using an ELISA assay according to the manufacture's protocol.

Data set [2] is described as follows: Dynamic light scattering of lipid nanoparticles (size, PDI). It counts as physicochemical. The method, then: (§1) Lipid nanoparticle formulations 3 were prepared by Process A at a molar ratio of 40:1.5:30:28.5 (Cationic Lipid: DMG-PEG2000: Cholesterol: Helper Lipid) with the cationic lipids and helper lipids disclosed in the tables below. The Polydispersity Index (Pdl) of lipid nanoparticles can be determined by diluting the formulation in 10% trehalose at about 0.1 mg/ml mRNA concentration and then measuring the size on Malvern zetasizer. The lipid nanoparticle size can be obtained with Malvern Zetasizer Nano-ZS.
Dynamic light scattering (DLS) measurements were performed using a Malvern Instruments Zetasizer with a backscattering detector angle of 173° and a 4-mW, 633-nm He—Ne laser (Worcestershire, UK). The samples were analyzed by diluting in 10% Trehalose and measuring the size and Poly dispersity Index (PDI) in an optical grade polystyrene cuvette.

A short description of data set [3]: mRNA encapsulation efficiency of lipid nanoparticles. The class given is physicochemical. As to conditions: for Encapsulation efficiency (EE): LNP with cationic lipid CL-A.
From the text: In embodiments, the lipid nanoparticle encapsulates a nucleic acid, optionally an mRNA encoding a peptide or protein. In embodiments, the lipid nanoparticle encapsulates an mRNA encoding a peptide or protein, optionally for use in a vaccine. In embodiments, the peptide is an antigen. As used herein, the phrase “encapsulation percentage” refers to the fraction of therapeutic agent (e.g. mRNA) that is effectively encapsulated within a liposomal-based vehicle (e.g. a lipid nanoparticle) relative to the initial fraction of therapeutic agent present in the lipid phase. In embodiments, the lipid nanoparticles have an encapsulation percentage for mRNA of at least 50%. In embodiments, the lipid nanoparticles have an encapsulation percentage for mRNA of at least 55%. In embodiments, the lipid nanoparticles have an encapsulation percentage for mRNA of at least 60%. In embodiments, the lipid nanoparticles have an encapsulation percentage for mRNA of at least 65%. In embodiments, the lipid nanoparticles have an encapsulation percentage for mRNA of at least 70%. In embodiments, the lipid nanoparticles have an encapsulation percentage for mRNA of at least 75%. In embodiments, the lipid nanoparticles have an encapsulation percentage for mRNA of at least 80%. In embodiments, the lipid nanoparticles have an encapsulation percentage for mRNA of at least 85%. In embodiments, the lipid nanoparticles have an encapsulation percentage for mRNA of at least 90%. In embodiments, the lipid nanoparticles have an encapsulation percentage for mRNA of at least 95%. In embodiments, the encapsulation percentage is calculated by performing the Ribogreen assay (Invitrogen) with and without the presence of 0.1% Triton-X 100.
The lipid nanoparticles in the examples of the present invention were formulated using Process A of WO 2018/089801 (see, e.g., Example 1 and FIG. 1 of WO 2018/089801). Process A (“A”) relates to a conventional method of encapsulating mRNA by mixing mRNA with a mixture of lipids, without first pre-forming the lipids into lipid nanoparticles. In an exemplary process, an ethanolic solution of a mixture of lipids (cationic lipid, phosphatidylethanolamine, cholesterol, and polyethylene glycol-lipid) at a fixed lipid to mRNA ratio were combined with an aqueous buffered solution of target mRNA at an acidic pH under controlled conditions to yield a suspension of uniform LNPs. After ultrafiltration and diafiltration into a suitable diluent system, the resulting nanoparticle suspensions were diluted to final concentration, filtered, and stored frozen at −80° C. until use.
as §1

In data set [4] the test system is hEPO. Kind of data set: IM EPO expression of LNPs containing new helper lipids (hEPO in serum by ELISA). As to conditions: for 6-h EPO / 24-h EPO: single IM injection; for 24-h EPO: serum 24 hours post injection; for Normalized Mean EPO expression: helper lipid CL-C formulations, IM, DOPE = 1. It counts as in vivo, female BALB/cJ mice. The protocol:
Lipid nanoparticles were formulated containing the four lipid components shown below at a ratio of 40:30:28.5:1.5, complexed with a hEPO messenger RNA. • Cationic lipid, 40 mol % • Phospholipid (PEA) helper lipid, 30 mol % • Cholesterol, 28.5 mol % • DMG-PEG-2K (1,2-dimyristoyl-rac-glycero-3-methoxypolyethyleneglycol), 1.5 mol % The cationic lipid component of each formulation was selected from the compounds in the table below: […]
EPO expression studies were conducted with female BALB/cJ mice 6-8 weeks of age. Mice were dosed with […] EPO mRNA in 30 μL of LNPs by a single intramuscular (IM) injection into the gastrocnemius leg muscle. Blood samples were taken 6 and 24 hours post injection and hEPO levels were measured in the blood serum of the mice using an ELISA assay according to the manufacture's protocol. WO2022/099003 A1 also describes an in vivo assay for intramuscular administration (e.g. on page 46, paragraph [00206]).
(In an ELISA, binding on a coated surface is turned into a signal by an enzyme label.)

Setting [5] is: LNP with cationic lipid CL-A, hEPO mRNA, 40:30:28.5:1.5.
Setting [6] is: CL-A LNP, 0.1 μg EPO mRNA in 30 μL, serum 6 hours post injection.
Where [7] appears, read: CL-B LNP, serum 6 hours post injection.

The values that follow come from patent publication US20260224688A1, “HELPER LIPIDS FOR NUCLEIC ACID DELIVERY” (SANOFI PASTEUR INC., priority 2023, published 2026).

As to `CCCCCCCCC(CCCCCCCC)C(=O)OCCCCCCC(=O)OCC(COP(=O)(O)OCCN(C)C)OC(=O)CCCCCCOC(=O)C(CCCCCCCC)CCCCCCCC` (centres unmarked) [Compound 18, ((3-(((2-(Dimethylamino)ethoxy)(hydroxy)phosphoryl)oxy)propane-1,2-diyl)bis(oxy))bis(7-oxoheptane-7,1-diyl) bis(2-octyldecanoate)], the “Normalized Mean IV EPO expression” value in data set [1] was 4.68. Also, the “Polydispersity Index (PDI)” value in data set [2] (LNP with cationic lipid CL-A) is 0.072. The Size in data set [2] (setting [5]) is listed as 155 nm; in data set [2] (LNP with cationic lipid CL-B), 117.5 nm; in data set [2] (LNP with cationic lipid CL-C), 117.5 nm. Further, the PDI in data set [2] (LNP with cationic lipid CL-B) and in data set [2] (LNP with cationic lipid CL-C) was 0.104 in each case. The “Encapsulation efficiency (EE)” value in data set [3] turned out to be 93%. The EE in data set [3] (LNP with cationic lipid CL-B) and in data set [3] (LNP with cationic lipid CL-C) was 89% throughout. The “6-h EPO” value in data set [4] (setting [6]) stood at 30.1 ng/mL; in data set [4] (setting [7]), 23.7 ng/mL; in data set [4] (CL-C LNP, (6-h)) it was 28.8 ng/mL.
With `CCCCCCCCOC(=O)CCCCCCCC(=O)OC(COC(=O)CCCCCCC(=O)OC(CCCCCCCC)CCCCCCCC)COP(=O)(O)OCCN(C)C` (centres unmarked) [Compound 11, 1-(1-(((2-(Dimethylamino)ethoxy)(hydroxy)phosphoryl)oxy)-3-((8-(heptadecan-9-yloxy)-8-oxooctanoyl)oxy)propan-2-yl) 9-octyl nonanedioate], in data set [1], the “Normalized Mean IV EPO expression” value amounted to 1.17. In data set [2] (LNP with cationic lipid CL-A), the “Polydispersity Index (PDI)” value stood at 0.068. Also, the Size in data set [2] (setting [5]) stood at 173 nm; in data set [2] (LNP with cationic lipid CL-B), 102.1 nm; in data set [2] (LNP with cationic lipid CL-C), 85.5 nm; in data set [2] (LNP with cationic lipid CL-D) it was 96.6 nm. Also, the PDI in data set [2] (LNP with cationic lipid CL-B) is recorded as 0.066; in data set [2] (LNP with cationic lipid CL-C), 0.119; in data set [2] (LNP with cationic lipid CL-D), 0.121. Further, in data set [3], the “Encapsulation efficiency (EE)” value stood at 94%. Moreover, the EE in data set [3] (LNP with cationic lipid CL-B) was 88%; in data set [3] (LNP with cationic lipid CL-C), 86%; in data set [3] (LNP with cationic lipid CL-D), 93%. The “6-h EPO” value in data set [4] (setting [6]) was found to be 19.251 ng/mL; in data set [4] (setting [7]), 5.2 ng/mL; in data set [4] (CL-C LNP), 7.4 ng/mL; in data set [4] (CL-C LNP, (6-h)) it was 8.7 ng/mL. The results for the “24-h EPO” value in data set [4] (CL-A LNP) and in data set [4] (CL-B LNP) were 11.25 ng/mL and 4.8 ng/mL, respectively.
As for `CCCCCCCCC(CCCCCCCC)OC(=O)CCCCCCC(=O)OCC(COP(=O)(O)OCCN(C)CCCO)OC(=O)CCCCCCC(=O)OC(CCCCCCCC)CCCCCCCC` (centres unmarked) [Compound 27], in data set [2] (LNP with cationic lipid CL-A), the “Polydispersity Index (PDI)” value turned out to be 0.059. Moreover, the Size in data set [2] (setting [5]) turned out to be 153 nm; in data set [2] (LNP with cationic lipid CL-B) it was 123.9 nm; in data set [2] (LNP with cationic lipid CL-C) it was 97.0 nm. The values for the PDI in data set [2] (LNP with cationic lipid CL-B) and in data set [2] (LNP with cationic lipid CL-C) were 0.108 and 0.129, respectively. Also, the “Encapsulation efficiency (EE)” value in data set [3] is reported as 94%. Also, the EE in data set [3] (LNP with cationic lipid CL-B) was found to be 98%; in data set [3] (LNP with cationic lipid CL-C), 97%. Moreover, the “6-h EPO” value in data set [4] (setting [6]) amounted to 25.6 ng/mL; in data set [4] (setting [7]) it was 53 ng/mL; in data set [4] (CL-C LNP, (6-h)), 46.9 ng/mL.
For the molecule `CCCCCCCCC(CCCCCCCC)OC(=O)CCCCCCC(=O)OC[C@@H](COP(=O)(O)OCCCCCN(C)C)OC(=O)CCCCCCC(=O)OC(CCCCCCCC)CCCCCCCC` [Compound 65, O′^1,O^1-((2S)-3-((((5-(Dimethylamino)pentyl)oxy)(hydroxy)phosphoryl)-oxy)propane-1,2-diyl) 8-di(heptadecan-9-yl) di(octanedioate)], in data set [1], the “Normalized Mean IV EPO expression” value was 2.14. Further, the “Normalized Mean EPO expression” value in data set [4] was found to be 0.825.
With `CC(C)CCCCOC(=O)CCCCCCC(=O)OCC(COP(=O)(O)OCCN)OC(=O)CCCCCCC(=O)OCCCCC(C)C` (centres unmarked) [Compound 2, O′^1,O^1-(3-(((2-Aminoethoxy)(hydroxy)phosphoryl)oxy)-propane-1,2-diyl) 8-bis(5-methylhexyl) di(octanedioate)], the “Polydispersity Index (PDI)” value in data set [2] (LNP with cationic lipid CL-A) is reported as 0.031. Also, the Size is 137 nm in data set [2] (setting [5]), 97.0 nm in data set [2] (LNP with cationic lipid CL-B), 88.5 nm in data set [2] (LNP with cationic lipid CL-C) and 114.3 nm in data set [2] (LNP with cationic lipid CL-D). Also, the PDI was found to be 0.124 in data set [2] (LNP with cationic lipid CL-B), 0.102 in data set [2] (LNP with cationic lipid CL-C) and 0.064 in data set [2] (LNP with cationic lipid CL-D). Further, the “Encapsulation efficiency (EE)” value in data set [3] stood at 69%. Moreover, the EE in data set [3] (LNP with cationic lipid CL-B) is 37%; in data set [3] (LNP with cationic lipid CL-C), 69%; in data set [3] (LNP with cationic lipid CL-D), 78%.
As for `CCCCCCCCC(CCCCCCCC)OC(=O)CCCCCCC(=O)OCC(COP(=O)(O)OCCCN(C)C)OC(=O)CCCCCCC(=O)OC(CCCCCCCC)CCCCCCCC` (centres unmarked) [Compound 60], the “Normalized Mean IV EPO expression” value in data set [1] turned out to be 4.61. The “Normalized Mean EPO expression” value in data set [4] was found to be 1.39.
With `CCCCCCCCC(CCCCCCCC)OC(=O)CCCCCCC(=O)OC[C@@H](COP(=O)(O)OCCN(C)CCCO)OC(=O)CCCCCCC(=O)OC(CCCCCCCC)CCCCCCCC` [Compound 28, 8-Di(heptadecan-9-yl) O′1,O1-((2S)-3-((hydroxy(2-((3-hydroxypropyl)(methyl)amino)ethoxy)phosphoryl)oxy)propane-1,2-diyl) di(octanedioate)], the “Normalized Mean EPO expression” value in data set [4] was 1.77.
Turning to `CCCCCCCCC(CCCCCCCC)OC(=O)CCCCCCC(=O)OC[C@@H](COP(=O)(O)OCC[N+](C)(C)CCCO)OC(=O)CCCCCCC(=O)OC(CCCCCCCC)CCCCCCCC` [Compound 38, (S)-2,3-Bis((8-(heptadecan-9-yloxy)-8-oxooctanoyl)oxy)propyl (2-((3-hydroxypropyl)dimethylammonio)ethyl) phosphate], the “Normalized Mean IV EPO expression” value in data set [1] worked out at 0.8.
